Measurements: patent US5654411A, “Process for preparing 4-deoxyerythromycin derivatives” (Abbott Laboratories, priority 1995, dated 1997)

Test system: smooth muscle strips isolated from rabbit small intestine
Assay: Induction of in vitro rabbit duodenal smooth muscle contraction
Conditions: for EC50: Oryctolagus cuniculus, rabbit duodenum longitudinal muscle, 37° C., pH 7.5, read-out: pED50 (negative logarithm of the concentration producing half of the maximal contraction) (converted); for Relative Potency: relative to erythromycin A = 1.0
Protocol: The compounds of the present invention were tested in vitro for their ability to induce contraction of smooth muscle strips isolated from rabbit small intestine using the following procedure:
Rabbits were sacrificed and 15 cm of duodenum was rapidly removed and placed in ice-cold modified Ringers solution (120 mM sodium chloride, 25 mM sodium bicarbonate, 4.7 mM potassium chloride, 1.25 mM calcium chloride, 1.20 mM magnesium sulfate and 5.6 mM glucose). The longitudinal muscle layer was separated from the circular muscle by blunt dissection and cut into strips of 10×20 mm. Double-folded strips were vertically suspended between two hooks in 10 mL tissue baths with a mechanical preload of 1 g. The upper hook was connected to an […] force transducer, and its displacement was recorded on a Grass polygraph. The tissue baths contained modified Ringers solution at 37° C. and were continuously gassed with 95% oxygen/5% carbon dioxide in order to maintain the pH at 7.5.
After a stabilization period of at least 60 minutes, a contractility dose-response series was performed by adding increasing final concentrations of methacholine (10^-7 M, 10^-6 M and 10^-5 M) in volumes of 100 μL. The bath solutions were replaced at least three times between doses.
After the methacholine dose-response series was completed, a test compound dose response curve was initiated by the same procedure used for the methacholine dose-response series, with at least five concentrations of test compound within the range of 10^-10 M to 10^-4 M. The tissues were washed repeatedly between doses, and the studies were completed by recording the contractile response to 10^-5 M methacholine to ascertain integrity of the muscle preparation. Contractile responses were expressed as percent of maximal contraction. The concentration of test compound which produces half of the maximal contraction (ED50 value) and the negative logarithm of the ED50 value (PED50) were estimated from the dose-response curves.

CC[C@H]1OC(=O)[C@H](C)[C@@H](O[C@H]2C[C@@](C)(OC)C[C@H](C)O2)[C@H](C)[C@@H](O[C@@H]2O[C@H](C)C[C@H](N(C)C)[C@H]2O)[C@@]2(C)C[C@@H](C)C(O2)[C@H](C)[C@@H](O)[C@]1(C)O [Example 13, 9-deoxo-4",6-dideoxy-6,9-epoxyerythromycin A]
EC50: 0.166 nM
Relative Potency: 8,511

CC[C@H]1OC(=O)[C@H](C)[C@@H](O[C@H]2C[C@@](C)(OC)C[C@H](C)O2)[C@H](C)[C@@H](O[C@@H]2O[C@H](C)C[C@H](N(C)CC)[C@H]2O)[C@@]2(C)CC(C)=C(O2)[C@H](C)[C@@H](O)[C@]1(C)O [Example 4, 8,9-anhydro-4"-deoxy-3'-N-desmethyl-3'-N-ethylerythromycin A-6,9-hemiketal]
EC50: 0.00316 nM
Relative Potency: 199,526

CC[C@H]1OC(=O)[C@H](C)[C@@H](O[C@H]2C[C@@](C)(OC)C[C@H](C)O2)[C@H](C)[C@@H](O[C@@H]2O[C@H](C)C[C@H](N(C)C)[C@H]2O)[C@@]2(C)CC(C)=C(O2)[C@H](C)[C@@H](O)[C@H]1C [Example 2, 8,9-anhydro-4"-deoxyerythromycin B-6,9-hemiketal]
EC50: 0.0055 nM
Relative Potency: 257,039

C#CC[N+](C)(C)[C@H]1C[C@@H](C)O[C@@H](O[C@@H]2[C@@H](C)[C@H](O[C@H]3C[C@@](C)(OC)C[C@H](C)O3)[C@@H](C)C(=O)O[C@H](CC)[C@@](C)(O)[C@H](O)[C@@H](C)C3O[C@]2(C)C[C@@H]3C)[C@@H]1O [Example 12, 9-deoxo-4",6-dideoxy-8-epi-6,9-epoxy-3'-N -propargylerythromycin A bromide]
EC50: 23.4 nM
Relative Potency: 60
